How the values were obtained:
[1] = test system: cell surface LDLR; test: FACS assay of LDLR at the HepG2 cell surface; assay type: cell-based, human; conditions: 10 μM, 24 h; LDLR positive HepG2 cells
Protocol: The ability of PCSK9 inhibitory compounds to prevent the activity of PCSK9 on LDLR at the cell surface was also measured by using flow cytometry analyses as described in Benjannet S. et al. J. Biol. Chem. 285: 40965-40978, 2010. The level of LDLR at the HepG2 cell surface was measured by using anti human LDLR antibody (1:100, mAb-C7, Santa Cruz Biotechnology) and a secondary Alexa Fluor 647 donkey anti-mouse (Molecular Probes) antibody. Viable cells (PI-negative) were then analyzed by FACS for both PI and Alexa Fluor 647 using the FACS BD LSR (BD Biosciences). Cell surface LDLR was reported relative to control (untreated cells). The inhibition of the PCSK9 function in these assays was detected by an increased number of positive cells which correlated with an increased expression of LDLR at the cell surface.
More particularly, Human hepatoblastoma HepG2 cells (4×10^5 cells/well) were seeded in 12 well plates (Greiner BioOne) in complete media and cultured for 20 hours, at 37° C., followed by a 1 hour wash in serum free media at 37° C. Next, the wash media was removed and the cells were incubated overnight (24 hours) with 0.9 ml/well incubation media containing compounds at 10 uM or DMSO control (0.4% final). After one rinse with buffer A followed by another rinse with EDTA solution (2.5 mM EDTA-2Na), the cells were detached by incubation in the presence of fresh EDTA solution (1 ml) at 37° C. for 20 minutes. All the steps following cell detachment were conducted on ice or 4° C. To terminate the detachment, the cells were transferred in a 15 ml tube containing 3 ml of buffer A and centrifuged immediately for 5 minutes at 900 rpm (100 g) (4° C.). The cells were then resuspended in 500 ul buffer A together with 1:250 human LDLR antibody and incubated on ice for 10 minutes. Cells were washed once with 5 ml buffer A, centrifuged for 5 minutes, resuspended in 500 ul buffer A containing 1:500 Alexa Fluor 647 secondary antibody and incubated on ice for 5 min. After the staining, cells were washed once with 5 ml buffer A, centrifuged for 5 minutes and resuspended in 300 ul buffer A containing 1.67 ug/ml propidium iodide. A fixed number (2,000 cells) of viable cells (propidium iodide negative) were then analyzed by FACS for Alexa Fluor 647 (cell surface LDLR) using a FACS-CyAn ADP flow cytometer (Beckman Coulter (DAKO)) and Summit software (Summit Software Inc.).
Human HepG2 cell line: ATCC, HB-8065 Seeding media: complete media—EMEM (high glucose+sodium pyruvate) (Wisent)+10% FBS Wash media: serum free media—EMEM (high glucose+sodium pyruvate) (Wisent) Incubation media with compounds: EMEM (high glucose+sodium pyruvate) (Wisent)+0.07% BSA (Sigma-Aldrich) BufferA: 1×D-PBS without calcium and magnesium (Wisent 311-425-CL)+0.5% BSA (Sigma A7409-50ml)+[…] Glucose (Wisent 609-036-EL). Primary antibody: human LDLR antibody, monoclonal Mouse IgG1 clone #472413 (MAB2148, R&D Systems) Secondary antibody: Alexa Fluor® 647 goat anti-mouse IgG (H+L)*2 mg/mL*(A21235, Molecular Probes) Propidium iodide: 1 mg/ml solution (P4864, Sigma)

[2] = test system: cell surface LDLR activity; test: Dil-LDL uptake assay in HepG2 naïve cells; assay type: cell-based, human; conditions: for activity at 10 µM: Homo sapiens, 24 h, HepG2 cells, read-out: Dil-LDL uptake (% DMSO Cnt)
Protocol: HepG2 naive cells and HEK293 naive cells were plated in 96-well plates (CellBind black plate with clear bottom (Corning; Cat #3340)) at a density of 25,000 cells/well, in complete media (DMEM high glucose (+sodium pyruvate for HepG2) (Wisent)+10% FBS). After 20 hours, cells were washed for 30 min with serum free DMEM media (100 μl/well), the wash media was removed and replaced with 100 μl/well of incubation media (DMEM high glucose (+sodium pyruvate for HepG2) (Wisent)+0.07% BSA (Sigma-Aldrich)) containing compound at various concentrations ([…]) or DMSO control (0.4% final). Each condition was prepared in triplicates. After 6 hours incubation at 37° C., Dil-LDL (Biomedical Technologies (Cat #BT-904)) was added to the cell media (5 μl) at 5 μg/ml final concentration, and cells returned to tissue culture incubator for another 18 hours (a total of 24 hours incubation with the compounds). After 2 washes (200 μl/well) with ice-cold D-PBS (Wisent) and aspiration of the final wash, plates were scanned (bottom read) on a SpectraMax GeminiEM™ plate reader (Molecular Devices). For each well, raw Dil-LDL uptake was measured as the average fluorescence intensity (RFU) (ex: 520 nm/em: 575 nm, cutoff: 550 nm) of 9 readings in 3 different points in the well. Dil-LDL uptake in each well was corrected for total number of cells by performing a CyQuant™ cell assay (Invitrogen; Cat #C7026). Namely, after recording the Dil fluorescence, the plate was frozen overnight at −80° C. The next day, the plates were thawed at room temperature, the cells lysed according to the manufacturer's protocol, and the number of cells/well was determined by measuring the fluorescence (RFU) of the CyQuant green fluorescent dye bound to the cellular nucleic acids (ex: 485 nm/em: 538 nm, cutoff: 515 nm). For each condition, Dil-RFU was divided by CyQuant-RFU. Corrected dil-LDL uptake is reported as % DMSO control and was obtained from triplicate wells.
The PCSK9 inhibitory compounds were also characterized using a Dil-LDL fluorescent uptake assay as described in Poirier et al., J. Biol. Chem. 284: 28856-28864, 2009. The method entails the fluorescence measurement of the Dil-LDL cellular incorporation via LDLR internalization (a measurement of cell surface LDLR activity) in human hepatocyte derived HuH7 or HepG2 cell lines, or human embryonic HEK293 cells, in the presence or absence of compounds.
HepG2 naïve cells and HEK293 naïve cells were plated in 96-well plates (CellBind™ black plate with clear bottom (Corning; Cat #3340)). At 20 h post-seeding, cells were incubated in the absence (DMSO or negative control) or in the presence of different concentrations of compounds. Each condition was prepared in triplicates. After 6 hours incubation, Dil-LDL (Biomedical Technologies (Cat #BT-904)) was added to the cell media, and cells returned to tissue culture incubator for another 18 hours. Plates were scanned (bottom read) on a SpectraMax GeminiEM™ plate reader (Molecular Devices). For each well, raw Dil-LDL uptake was measured as the average fluorescence intensity (RFU) (ex: 520 nm/em: 575 nm, cutoff: 550 nm) of 9 readings in 3 different points in the well. Dil-LDL uptake in each well was corrected for total number of cells by performing a CyQuant™ cell assay (Invitrogen, Cat #C7026) according to the manufacturer's instructions. Corrected Dil-LDL uptake is reported as a % of DMSO control and was obtained from triplicate wells.

| SMILES | FACS-LDLR (% DMSO Cnt) [1] [% DMSO Cnt] | Dil-LDL uptake (FIG. 5A, in words) ([2]; 33.3 μM, HepG2 naïve cells) | activity at 10 µM [2] [%] |
| --- | --- | --- | --- |
| CC(C)[C@H](NC(=O)c1ccc(-c2ccccc2)cc1)C(=O)N[C@@H](Cc1ccccc1)C(=O)N[C@@H](C)C(=O)NC(CCC(N)=O)C(O)C(F)(F)F (stereo partly drawn) [Example 24, N-((2S)-1-(((2S)-1-(((2S)-1-((6-Amino-1,1,1-trifluoro-2-hydroxy-6-oxohexan-3-yl)amino)-1-oxopropan-2-yl)amino)-1-oxo-3-phenylpropan-2-yl)amino)-3-methyl-1-oxobutan-2-yl)-[1,1′-biphenyl]-4-carboxamide] | 116 ± 5 | increase in the Dil-LDL uptake | 224 ± 33 |
| CSCC[C@H](NC(=O)c1ccc(-c2ccccc2)cc1)C(=O)N[C@@H](Cc1ccccc1)C(=O)N[C@@H](C)C(=O)NC(CCC(N)=O)C(O)C(F)(F)F (stereo partly drawn) [Example 75, N-((5S,8S,11S)-17-amino-8-benzyl-11-methyl-6,9,12,17-tetraoxo-14-(2,2,2-trifluoro-1-hydroxyethyl)-2-thia-7,10,13-triazaheptadecan-5-yl)-[1,1′-biphenyl]-4-carboxamide] | 174 ± 41 | – | 172 ± 48 |
| CCCCCCCCCC(=O)N[C@H](C(=O)N[C@@H](Cc1ccccc1)C(=O)N[C@H](C(=O)NC(CCC(N)=O)C(O)C(F)(F)F)C(C)C)C(C)C (stereo partly drawn) [Example 58, N-((2S)-1-(((2S)-1-(((2S)-1-((6-amino-1,1,1-trifluoro-2-hydroxy-6-oxohexan-3-yl)amino)-3-methyl-1-oxobutan-2-yl)amino)-1-oxo-3-phenylpropan-2-yl)amino)-3-methyl-1-oxobutan-2-yl)decanamide] | 166 ± 28 | – | 261 ± 48 |
| CC(C)[C@H](NC(=O)c1ccc(-c2ccc(F)cc2)cc1)C(=O)N[C@@H](Cc1ccccc1)C(=O)N[C@@H](C)C(=O)NC(CCC(N)=O)C(O)C(F)(F)F (stereo partly drawn) [Example 52, N-((2S)-1-(((2S)-1-(((2S)-1-((6-Amino-1,1,1-trifluoro-2-hydroxy-6-oxohexan-3-yl)amino)-1-oxopropan-2-yl)amino)-1-oxo-3-phenylpropan-2-yl)amino)-3-methyl-1-oxobutan-2-yl)-4′-fluoro-[1,1′-biphenyl]-4-carboxamide] | 138 ± 20 | – | 254 ± 71 |
| CC(C)[C@H](NC(=O)c1ccc(-c2ccccc2)cc1)C(=O)N[C@@H](Cc1ccccc1)C(=O)NC1(C(=O)N[C@@H](CCC(N)=O)C(O)C(F)(F)F)CCC1 (single isomer, unassigned) [Example 66] | 122 ± 11 | – | 237 ± 59 |
| CC(C)[C@H](NC(=O)c1ccc(C2(C(F)(F)F)N=N2)cc1)C(=O)N[C@@H](Cc1ccccc1)C(=O)N[C@@H](C)C(=O)NC(CCC(N)=O)C(O)C(F)(F)F (stereo partly drawn) [Example 29, N-((2S)-1-(((2S)-1-(((2S)-1-((6-Amino-1,1,1-trifluoro-2-hydroxy-6-oxohexan-3-yl)amino)-1-oxopropan-2-yl)amino)-1-oxo-3-phenylpropan-2-yl)amino)-3-methyl-1-oxobutan-2-yl)-4-(3-(trifluoromethyl)-3H-diazirin-3-yl)benzamide] | 233 ± 50 | – | 207 ± 21 |
| CCCCCCCCCC(=O)N[C@H](C(=O)N[C@@H](Cc1ccccc1)C(=O)N[C@H](C)C(=O)N[C@@H](CCC(N)=O)C(O)C(F)(F)F)C(C)C (single isomer, unassigned) [Example 60] | 138 ± 8 | – | 224 ± 43 |
| CCCCCCCCCC(=O)N[C@H](C(=O)N[C@@H](Cc1ccccc1)C(=O)N[C@@H](Cc1ccccc1)C(=O)NC(CCC(N)=O)C(O)C(F)(F)F)C(C)C (stereo partly drawn) [Example 59, N-((2S)-1-(((2S)-1-(((2S)-1-((6-Amino-1,1,1-trifluoro-2-hydroxy-6-oxohexan-3-yl)amino)-1-oxo-3-phenylpropan-2-yl)amino)-1-oxo-3-phenylpropan-2-yl)amino)-3-methyl-1-oxobutan-2-yl)decanamide] | 265 ± 35 | – | 253 ± 75 |
| CC(C)[C@H](NC(=O)c1ccc(-c2ccccc2)cc1)C(=O)N[C@H](Cc1ccccc1)C(=O)N[C@@H](C)C(=O)NC(CCC(N)=O)C(O)C(F)(F)F (stereo partly drawn) [Example 70, N-((2S)-1-(((2R)-1-(((2S)-1-((6-Amino-1,1,1-trifluoro-2-hydroxy-6-oxohexan-3-yl)amino)-1-oxopropan-2-yl)amino)-1-oxo-3-phenylpropan-2-yl)amino)-3-methyl-1-oxobutan-2-yl)-[1,1′-biphenyl]-4-carboxamide] | 118 ± 18 | – | 224 ± 47 |
